Values quoted from earlier work as cited in patent US20230149379A1, “COMBINATION THERAPY FOR ACUTE MYELOID LEUKEMIA” (Celgene Corporation, priority 2020, published 2023).

Columns and labels:
[1] = system: AML at relapse; conditions: administered alone
[2] = system: R/R AML; conditions: stepwise dosing

tumor lysis syndrome [2] | Compound | response in treating AML at relapse [1]
 | CT-011: anti-PD-1 antibody, a humanized antibody | failed to show response
did not occur | CC1(C)CCC(CN2CCN(c3ccc(C(=O)NS(=O)(=O)c4ccc(NCC5CCOCC5)c([N+](=O)[O-])c4)c(Oc4cnc5[nH]ccc5c4)c3)CC2)=C(c2ccc(Cl)cc2)C1 [Venetoclax, 4-[4-[[2-(4-chlorophenyl)-4,4-dimethylcyclohexen-1-yl]methyl]piperazin-1-yl]-N-[3-nitro-4-(oxanylmethylamino)phenyl]sulfonyl-2-(1H-pyrrolo[2,3-b]pyridin-5-yloxy)benzamide] | 
